{
  "source": "patent US20160310525A1",
  "about": "“PREPARATION FOR PREVENTION AND/OR TREATMENT OF PERI-IMPLANTITIS” (RLS GLOBAL AB, priority 2013, published 2016)",
  "origin": "cited, not measured here",
  "system": "biofilm on titan specimens",
  "data": [
    {"smiles": "OCl", "note": "[sodium hypochlorite]", "values": [
      {"measurement": "antimicrobial effect on biofilm", "value": "effective"}
    ]}
  ]
}
